Holding throughout (assay type): in vivo
For one test, the system named is Mythimna separata. The test is described as follows: Activity determination of killing Mythimna separata (Airbrush spray, corn leaf segments). To be noted: foliar, dose 1.25 mg/L, 3rd instar larvae, 3rd day after administration, read-out: mortality against Mythimna separata. Here is the method:
(§1) The compounds to be tested were dissolved in a mixed solvent of acetone/methanol (1:1) and then diluted to desired concentrations with water containing 0.1% (wt) Tween 80.
(§2) With Mythimna separata and Plutella xylostella as targets, the activity was determined by Airbrush spray method.
Determination method: Corn leaves were cut into leaf segments with the length of 2 cm, the pressure of Airbrush spray treatment is 10 psi (about 0.7 kg/cm^2), and the compounds to be tested were sprayed onto the front and back surfaces of each leaf segment at a liquid amount of 0.5 mL. After drying in the shade, 10 3rd instar larvae were inoculated to each treatment, and each treatment was repeated for 3 times. After the treatment, the larvae were placed in an observation room for culture at 25° C. with relative humidity of 60-70%. On the 3rd day after administration, the number of surviving larvae was investigated, and the mortality was calculated.

A further test concerns Plutella xylostella. The test is described as follows: Activity determination of killing Plutella xylostella (Airbrush spray, cabbage leaf discs). The following applies: foliar; for mortality at 0.3125 µg/mL: read-out: Mortality (%, on 3rd day after administration) 0.3125 mg/L; for mortality at 0.625 µg/mL: read-out: Mortality (%, on 3rd day after administration) 0.625 mg/L. As for the experimental part: as §1, §2
Determination method: Cabbage leaves were punched into leaf discs with the diameter of 2 cm by a puncher, the pressure of Airbrush spray treatment is 10 psi (about 0.7 kg/cm^2), and the compounds to be tested were sprayed onto the front and back surfaces of each leaf disc at a liquid amount of 0.5 mL. After drying in the shade, 10 3rd instar larvae were inoculated to each treatment, and each treatment was repeated for 3 times. After the treatment, the larvae were placed in an observation room for culture at 25° C. with relative humidity of 60-70%. On 3rd day after administration, the number of surviving larvae was investigated, and the mortality was calculated.
Some compounds of the present disclosure and control compounds were selected to carry out parallel comparative experiments of the insecticidal activity against Plutella xylostella (on 3rd day after administration), and the determination method was the same as above.

A further test deals with Dermacentor variabilis. Description: Insecticidal test on Dermacentor variabilis (compound film in culture dish). To be noted: 1 μg/cm^2, 1st nymphs, after 24 h, 25° C., read-out: insect mortality (Dermacentor variabilis). As for the experimental part:
(§3) 4 mg of compounds to be tested were dissolved in 40 mL of acetone to obtain acetone solutions with a concentration of 100 mg/L. Bottom surfaces and side surfaces of 2 culture dishes with an inner diameter of 5.3 cm were coated with 400 μL of the drug solutions, and when the acetone was volatilized, films of the compounds of the present disclosure were prepared on inner walls of the culture dishes. The inner walls of the culture dishes used were 40 cm^2, and a dose of the treatment drugs was 1 μg/cm^2. 10 1st nymphs of Dermacentor variabilis (males and females were mixed) were placed in the culture dishes. The 2 culture dishes were combined, sealed with tape at a junction portion to prevent escape of the nymphs, and then stored in a constant-temperature room at 25° C. The number of dead insects was checked after 24 h, and the insect mortality was calculated. The test was repeated for 3 times. Test results: The insect mortality of compounds 1, 2, 3, 4, 5, 11, 12, 18, 32, 33, 34, 46, 60, 74, 88, 99, 101, 102, 104, 105, 108, 109, 110, 111, 113 and 114 is 70% or above.

The test system of another test is Tetranychus cinnabarinus. The test is described as follows: Greenhouse acaricidal activity on adult acarids of Tetranychus cinnabarinus (spraying of Phaseolus vulgaris seedlings). To be noted: dose 1.25 mg/L, after 72 h, read-out: mortality against adult acarids of Tetranychus cinnabarinus. As for the experimental part: According to the solubility of the compounds to be tested, the compounds to be tested were dissolved in acetone or dimethyl sulfoxide and prepared into 50 mL of solutions to be tested at desired concentrations with a 0.1% Tween 80 solution, where the content of the acetone or dimethyl sulfoxide in the solutions was not higher than 10%.
Two true leaves of Phaseolus vulgaris seedlings were taken, and 30-40 adult acarids of Tetranychus cinnabarinus were inoculated. After the cardinal number was investigated, the whole plants were subjected to spraying treatment with a hand-held sprayer, each treatment was repeated for 3 times, and the plants were placed in a standard observation room after the treatment. The number of surviving acarids was investigated after 72 h, and the mortality was calculated.

In the next test the test system is Ctenocephalides felis. The test is described as follows: Insecticidal test on Ctenocephalides felis (compound film in culture dish). The following applies: 1 μg/cm^2; adult Ctenocephalides felis; after 72 h; 25° C.; read-out: insect mortality (Ctenocephalides felis). As for the experimental part:
as §3, with “of” for “of 2”, “adult Ctenocephalides felis” for “1st nymphs of Dermacentor variabilis”, “dishes, and the” for “dishes. The 2”, “covered” for “combined, sealed with tape at a junction portion to prevent escape of the nymphs,”, “72” for “24”

Where [1] appears, read: 0.3125 mg/L, parallel comparative experiment, 3rd day after administration.
The mark [2] stands for this setting: 0.625 mg/L, parallel comparative experiment, 3rd day after administration.
[3] abbreviates: 1.25 mg/L, parallel comparative experiment, 3rd day after administration, read-out: Mortality (%, on 3rd day after administration) 1.25 mg/L.
[4] abbreviates: dose 1.25 mg/L, 3rd instar larvae, 3rd day after administration, read-out: mortality against Plutella xylostella.
[5] abbreviates: read-out: Mortality (%, on 3rd day after administration) 1.25 mg/L.

Each structure is given as a SMILES string. Where two headings read alike, the source gives them in different places.

In the case of `C=CCN(C(=O)c1cc(-c2cnn(-c3c(Cl)cc(C(F)(C(F)(F)F)C(F)(F)F)cc3Cl)c2)cnc1Cl)C1CC1` [Compound 1], the mortality at 1.25 µg/mL in the test on Mythimna separata is not below 90%; in the test with Plutella xylostella (setting [3]) it was 100%; with Plutella xylostella (setting [4]), not below 90%; in the test with Tetranychus cinnabarinus it was not below 90%. The mortality at 0.3125 µg/mL with Plutella xylostella (setting [1]) is 93.3%. The mortality at 0.625 µg/mL in the test on Plutella xylostella (setting [2]) stood at 100%. Also, the mortality at 1 µg/cm2 in the test on Dermacentor variabilis and in the test on Ctenocephalides felis was not below 70% in each case.

Consider `N#CCN(C(=O)c1cc(-c2cnn(-c3c(Br)cc(C(F)(C(F)(F)F)C(F)(F)F)cc3Br)c2)cnc1Cl)C1CC1` [Compound 18], for which the mortality at 1.25 µg/mL in the test on Mythimna separata, in the test on Plutella xylostella (setting [4]) and in the test with Tetranychus cinnabarinus was not below 90% each time. Besides, the mortality at 1 µg/cm2 in the test on Dermacentor variabilis and in the test on Ctenocephalides felis was not below 70% each time.

For the molecule `CCC(=O)N(C(=O)c1cc(-c2cnn(-c3c(Cl)cc(C(F)(C(F)(F)F)C(F)(F)F)cc3Cl)c2)cnc1Cl)C1(C#N)CC1` [Compound 109], the mortality at 1.25 µg/mL in the test with Mythimna separata, with Plutella xylostella (setting [4]) and with Tetranychus cinnabarinus was not below 90% in each case. The mortality at 1 µg/cm2 with Dermacentor variabilis and with Ctenocephalides felis was not below 70% throughout.

On to `N#CCN(C(=O)c1cc(-c2cnn(-c3c(Cl)cc(C(F)(C(F)(F)F)C(F)(F)F)cc3Cl)c2)cnc1Cl)C1CC1` [Compound 4], for which the mortality at 1.25 µg/mL is not below 90% in the test with Mythimna separata, 100% in the test on Plutella xylostella (setting [3]), not below 90% in the test with Plutella xylostella (setting [4]) and not below 90% with Tetranychus cinnabarinus. Further, the mortality at 0.3125 µg/mL with Plutella xylostella (setting [1]) worked out at 100%. In addition, the mortality at 0.625 µg/mL in the test with Plutella xylostella (setting [2]) stood at 100%. Moreover, the mortality at 1 µg/cm2 with Dermacentor variabilis and in the test on Ctenocephalides felis was not below 70% each time.

As to `N#CCN(C(=O)c1cc(-c2cnn(-c3c(Br)cc(C(F)(C(F)(F)F)C(F)(F)F)cc3OC(F)(F)F)c2)cnc1Cl)C1CC1` [Compound 74], the mortality at 1.25 µg/mL with Mythimna separata, in the test on Plutella xylostella (setting [4]) and with Tetranychus cinnabarinus was not below 90% throughout. Further, the mortality at 1 µg/cm2 with Dermacentor variabilis and with Ctenocephalides felis was not below 70% in each case.

Turning to `N#CC1(N(C(=O)c2cc(-c3cnn(-c4c(Cl)cc(C(F)(C(F)(F)F)C(F)(F)F)cc4Cl)c3)cnc2Cl)C(=O)C2CC2)CC1` [Compound 113], the mortality at 1.25 µg/mL in the test with Mythimna separata is not below 90%; in the test on Plutella xylostella (setting [3]), 100%; in the test on Plutella xylostella (setting [4]) it was not below 90%; in the test on Tetranychus cinnabarinus, not below 90%. Further, the mortality at 0.3125 µg/mL with Plutella xylostella (setting [1]) came out at 100%. The mortality at 0.625 µg/mL in the test with Plutella xylostella (setting [2]) came out at 100%. Besides, the mortality at 1 µg/cm2 in the test on Dermacentor variabilis and in the test with Ctenocephalides felis was not below 70% throughout.

As to `N#CCN(C(=O)c1cc(-c2cnn(-c3c(Cl)cc(C(F)(C(F)(F)F)C(F)(F)F)cc3Br)c2)cnc1Cl)C1CC1` [Compound 32], the mortality at 1.25 µg/mL in the test on Mythimna separata, in the test with Plutella xylostella (setting [4]) and in the test with Tetranychus cinnabarinus was not below 90% each time. For the same molecule, the mortality at 1 µg/cm2 with Dermacentor variabilis and in the test with Ctenocephalides felis was not below 70% each time.

On to `O=C(NC1CC1)c1cc(-c2cnn(-c3c(Cl)cc(C(F)(C(F)(F)F)C(F)(F)F)cc3Cl)c2)cnc1Cl` [CK1, reference compound], for which, in the test with Plutella xylostella (setting [1]), the mortality at 0.3125 µg/mL amounted to 20%. The mortality at 0.625 µg/mL with Plutella xylostella (setting [2]) is 66.7%. The mortality at 1.25 µg/mL in the test on Plutella xylostella (setting [3]) amounted to 100%.

On to `C#CCN(C(=O)c1cc(-c2cnn(-c3c(Cl)cc(C(F)(C(F)(F)F)C(F)(F)F)cc3Cl)c2)cnc1Cl)C1CC1` [Compound 2], for which the mortality at 1.25 µg/mL with Mythimna separata is not below 90%; in the test on Plutella xylostella (setting [3]), 100%; with Plutella xylostella (setting [4]), not below 90%; with Tetranychus cinnabarinus, not below 90%. In addition, the mortality at 0.3125 µg/mL in the test with Plutella xylostella (setting [1]) is 90%. The mortality at 0.625 µg/mL in the test with Plutella xylostella (setting [2]) is 100%. In addition, the mortality at 1 µg/cm2 in the test on Dermacentor variabilis and in the test on Ctenocephalides felis was not below 70% in each case.

For the molecule `CCCC(=O)N(C(=O)c1cc(-c2cnn(-c3c(Cl)cc(C(F)(C(F)(F)F)C(F)(F)F)cc3Cl)c2)cnc1Cl)C1(C#N)CC1` [Compound 110], the mortality at 1.25 µg/mL in the test on Mythimna separata, in the test with Plutella xylostella (setting [4]) and with Tetranychus cinnabarinus was not below 90% throughout. Moreover, the mortality at 1 µg/cm2 with Dermacentor variabilis and with Ctenocephalides felis was not below 70% throughout.

Regarding `N#CCN(C(=O)c1cc(-c2cnn(-c3c(Br)cc(C(F)(C(F)(F)F)C(F)(F)F)cc3C(F)(F)F)c2)cnc1Cl)C1CC1` [Compound 46], the mortality at 1.25 µg/mL with Mythimna separata, in the test with Plutella xylostella (setting [4]) and with Tetranychus cinnabarinus was not below 90% throughout. Further, the mortality at 1 µg/cm2 in the test on Dermacentor variabilis and with Ctenocephalides felis was not below 70% in each case.

Consider `N#CCCCN(C(=O)c1cc(-c2cnn(-c3c(Cl)cc(C(F)(C(F)(F)F)C(F)(F)F)cc3Br)c2)cnc1Cl)C1CC1` [Compound 34], for which the mortality at 1.25 µg/mL in the test with Mythimna separata, in the test on Plutella xylostella (setting [4]) and in the test on Tetranychus cinnabarinus was not below 90% in each case. The mortality at 1 µg/cm2 with Dermacentor variabilis and in the test on Ctenocephalides felis was not below 70% in each case.

For `CC(C)C(=O)N(C(=O)c1cc(-c2cnn(-c3c(Cl)cc(C(F)(C(F)(F)F)C(F)(F)F)cc3Cl)c2)cnc1Cl)C1(C#N)CC1` [Compound 111], the mortality at 1.25 µg/mL in the test with Mythimna separata, in the test on Plutella xylostella (setting [4]) and with Tetranychus cinnabarinus was not below 90% each time. In addition, the mortality at 1 µg/cm2 in the test with Dermacentor variabilis and in the test with Ctenocephalides felis was not below 70% each time.

With `CN(C(=O)c1cc(-c2cnn(-c3c(Cl)cc(C(F)(C(F)(F)F)C(F)(F)F)cc3Cl)c2)cnc1Cl)C1CC1` [CK2, reference compound], in the test on Plutella xylostella, the mortality at 0.3125 µg/mL was 13.3% and the mortality at 0.625 µg/mL amounted to 60%. The mortality at 1.25 µg/mL in the test on Plutella xylostella (setting [5]) is 93.3%.

Regarding `N#CC1(NC(=O)c2cc(-c3cnn(-c4c(Cl)cc(C(F)(C(F)(F)F)C(F)(F)F)cc4Cl)c3)cnc2Cl)CC1` [CK3, reference compound], in the test with Plutella xylostella, the mortality at 0.3125 µg/mL turned out to be 30% and the mortality at 0.625 µg/mL was 60%. Besides, the mortality at 1.25 µg/mL in the test on Plutella xylostella (setting [5]) worked out at 100%.

As to `CN(C(=O)c1cc(-c2cnn(-c3c(Cl)cc(C(F)(C(F)(F)F)C(F)(F)F)cc3Cl)c2)cnc1Cl)C1(C#N)CC1` [CK4, reference compound], in the test with Plutella xylostella, the mortality at 0.3125 µg/mL came to 20% and the mortality at 0.625 µg/mL worked out at 56.7%. In addition, in the test on Plutella xylostella (setting [5]), the mortality at 1.25 µg/mL turned out to be 90%.

(Values after patent US20250084058A1, “PHENYLPYRAZOLE COMPOUND AND APPLICATION THEREOF” (priority 2022, published 2025).)
